Data reported in the Deep4Chem optical property database.
Each block holds one compound with its values, some of them ahead of it.

Assay: photoluminescence quantum yield (fraction); solvent given as SMILES

Compound: COc1cccc(C2=C(c3ccc(C(C)(C)C)cc3)C(c3ccc(C(C)(C)C)cc3)=[N+]3C2=C(c2ccccc2)c2c(-c4cccc(OC)c4)c(-c4ccc(C(C)(C)C)cc4)c(-c4ccc(C(C)(C)C)cc4)n2[B-]3(F)F)c1
photoluminescence quantum yield (in C1CCCCC1): 0.44 | photoluminescence quantum yield (in C1CCOC1): 0.45 | photoluminescence quantum yield (in CC#N): 0.38 | photoluminescence quantum yield (in Cc1ccccc1): 0.54 | photoluminescence quantum yield (in ClCCl): 0.58

Compound: CC(=O)[B-]1(C(C)=O)OC(c2ccccc2)=CC(c2ccccc2)=[O+]1
photoluminescence quantum yield (in CC#N): 0.8 | photoluminescence quantum yield (in ClC(Cl)(Cl)Cl): 0.9

Compound: N#Cc1cc2ccc(O)cc2oc1=N
photoluminescence quantum yield (in C1CCOC1): 0.0262 | photoluminescence quantum yield (in CC#N): 0.0086 | photoluminescence quantum yield (in CCOC(C)=O): 0.072 | photoluminescence quantum yield (in CS(C)=O): 0.0022 | photoluminescence quantum yield (in ClC(Cl)Cl): 0.0342

Compound: Nc1ccc2nc(-c3ccccc3)c(=O)oc2c1
photoluminescence quantum yield (in c1ccccc1): 0.697

Compound: CCCCc1cc2cccc[n+]2[b-]2c(-c3cccc4[b-]3[n+]3ccccc3cc4CCCC)cccc21
photoluminescence quantum yield (in C1CCCCC1): 0.03

Compound: Cc1cc(C)c(C2=C3C=C(c4ccc(C(C)(C)C)cc4)C(c4ccc(C(C)(C)C)cc4)=[N+]3[B-](F)(F)n3c2cc(-c2ccc(C(C)(C)C)cc2)c3-c2ccc(C(C)(C)C)cc2)c(C)c1
photoluminescence quantum yield (in C1CCCCC1): 0.77 | photoluminescence quantum yield (in C1CCOC1): 0.96 | photoluminescence quantum yield (in CC#N): 0.62 | photoluminescence quantum yield (in Cc1ccccc1): 0.78 | photoluminescence quantum yield (in ClCCl): 0.74

Compound: c1ccc(C2=C(c3ccccc3)c3cccc4c3c(cc3nc5cc(-c6ccccc6)c(-c6ccccc6)cc5nc34)O2)cc1
photoluminescence quantum yield (in ClCCl): 0.86

Compound: COC(=O)[C@@]12N=N[C@@H](C3C[C@H]31)[C@@H]1C[C@@H]12 (some centres undefined)
photoluminescence quantum yield (in CC#N): 0.0066

Compound: COc1ccc(-c2nc(-c3ccc(OC)cc3C)nc(-c3ccc(N4c5ccccc5C5(c6ccccc6-c6ccccc65)c5ccccc54)cc3C)n2)c(C)c1
photoluminescence quantum yield (in O=P(c1ccccc1)(c1ccccc1)c1ccccc1Oc1ccccc1P(=O)(c1ccccc1)c1ccccc1): 0.51

Compound: CCOC(=O)CN1C(=O)C2=C(c3ccc(C#N)cc3)N(CC(=O)OCC)C(=O)C2=C1c1ccccc1
photoluminescence quantum yield (in CC#N): 0.75 | photoluminescence quantum yield (in CS(C)=O): 0.51 | photoluminescence quantum yield (in Cc1ccccc1): 0.43

Compound: Cc1cn(CCCn2cc(C)c(=O)[nH]c2=O)c(=O)nc1-n1cncn1
photoluminescence quantum yield (in O): 0.016

Compound: O=[N+]([O-])c1ccc(F)cc1C1CC(c2cccc3ccccc23)=NN1c1ccccc1 (centres undefined)
photoluminescence quantum yield (in C1CCCCC1): 0.24 | photoluminescence quantum yield (in C1CCOC1): 0.3 | photoluminescence quantum yield (in C1COCCO1): 0.46 | photoluminescence quantum yield (in CC#N): 0.2 | photoluminescence quantum yield (in CC(C)O): 0.19 | photoluminescence quantum yield (in CCOC(C)=O): 0.15 | photoluminescence quantum yield (in CCOCC): 0.2 | photoluminescence quantum yield (in CO): 0.14 | photoluminescence quantum yield (in Cc1ccccc1): 0.22 | photoluminescence quantum yield (in ClC(Cl)Cl): 0.12 | photoluminescence quantum yield (in O): 0.12

Compound: COc1ccc(C2=C3C=CC(C)=[N+]3[B-](F)(F)n3c(C)ccc32)cc1
photoluminescence quantum yield (in C1CCCCC1): 0.42 | photoluminescence quantum yield (in C1CCOC1): 0.36 | photoluminescence quantum yield (in CC#N): 0.21 | photoluminescence quantum yield (in CCOC(C)=O): 0.3 | photoluminescence quantum yield (in CO): 0.25 | photoluminescence quantum yield (in Cc1ccccc1): 0.52 | photoluminescence quantum yield (in ClC(Cl)Cl): 0.46

Compound: COc1ccc(-c2csc(/C(C#N)=C/c3ccc(C#N)cc3)n2)cc1
photoluminescence quantum yield (in CC#N): 0.008 | photoluminescence quantum yield (in CCO): 0.008 | photoluminescence quantum yield (in CN(C)C=O): 0.002 | photoluminescence quantum yield (in Cc1ccccc1): 0.248 | photoluminescence quantum yield (in ClCCl): 0.065

Compound: COc1ccc(OC)cc1
photoluminescence quantum yield (in C1CCCCC1): 0.22

Compound: N#Cc1c(-n2c3ccccc3c3ccccc32)c(-n2c3ccccc3c3ccccc32)c(-n2c3ccccc3c3ccccc32)c(-n2c3ccc(-c4ccccc4)cc3c3cc(-c4ccccc4)ccc32)c1-n1c2ccccc2c2ccccc21
photoluminescence quantum yield (in Cc1ccccc1): 0.85

Compound: CC(C)(C)c1ccc2c(c1)Sc1cc(C(C)(C)C)ccc1N2c1ccc2c(ccc3nc4ccc5cc(N6c7ccc(C(C)(C)C)cc7Sc7cc(C(C)(C)C)ccc76)ccc5c4nc32)c1
photoluminescence quantum yield (in C1CCCCC1): 0.11 | photoluminescence quantum yield (in Cc1ccccc1): 0.04

Compound: COc1ccc(C)cc1C1=C2C=CC(=[N+](C)C)C=C2[Si](C)(C)c2cc(N(C)C)ccc21
photoluminescence quantum yield (in O): 0.28

Compound: CC1(C)C(/C=C/C2=C(c3ccc(C(=O)O)cc3)C(=C/C=C3/N(CCCCS(=O)(=O)[O-])c4ccc(S(=O)(=O)[O-])cc4C3(C)C)/CCC2)=[N+](CCCCS(=O)(=O)[O-])c2ccc(S(=O)(=O)[O-])cc21
photoluminescence quantum yield (in CO): 0.1

Compound: O=C1c2ccc3c4c(Oc5ccccc5)cc5c6c(ccc(c7c(Oc8ccccc8)cc(c2c37)C(=O)N1c1ccc(O)cc1)c64)C(=O)N(c1ccc(O)cc1)C5=O
photoluminescence quantum yield (in C1CCOC1): 0.3 | photoluminescence quantum yield (in CN1CCCC1=O): 0.2 | photoluminescence quantum yield (in CN(C)C=O): 0.01

Compound: COc1ccc(C2=C(c3ccc(OC)cc3)C(C)(C)c3cc(-c4ccccc4)ccc32)cc1
photoluminescence quantum yield (in C1CCCCC1): 0.06

Compound: CCCCOc1ccc(-c2oc3cc4n(c3c2-c2ccc(OCCCC)cc2)[B-](F)(F)[N+]2=Cc3cc5oc(-c6ccc(OCCCC)cc6)c(-c6ccc(OCCCC)cc6)c5n3[B-](F)(F)[N+]2=C4)cc1
photoluminescence quantum yield (in C1CCOC1): 0.44 | photoluminescence quantum yield (in CN(C)C=O): 0.32 | photoluminescence quantum yield (in CS(C)=O): 0.31 | photoluminescence quantum yield (in Cc1ccccc1): 0.42 | photoluminescence quantum yield (in ClC(Cl)Cl): 0.43 | photoluminescence quantum yield (in ClCCl): 0.43

Compound: COc1cc(OC)cc(C2=C3C(C)=C(I)C(/C=C/c4ccsc4)=[N+]3[B-](F)(F)n3c(/C=C/c4ccsc4)c(I)c(C)c32)c1
photoluminescence quantum yield (in C1CCOC1): 0.01 | photoluminescence quantum yield (in CS(C)=O): 0.01 | photoluminescence quantum yield (in ClCCl): 0.02

Compound: CCCCCCn1c2cc(C(=O)OCC)ccc2c2c1c1ccc(C(=O)OCC)cc1n2CCCCCC
photoluminescence quantum yield (in CCCO): 0.6

Compound: COc1ccc(-c2csc(/C(C#N)=C\Nc3ccc(C#N)cc3)n2)cc1
photoluminescence quantum yield (in CC#N): 0.001 | photoluminescence quantum yield (in CCO): 0.001 | photoluminescence quantum yield (in CN(C)C=O): 0.003 | photoluminescence quantum yield (in Cc1ccccc1): 0.003 | photoluminescence quantum yield (in ClCCl): 0.001

Compound: O=c1c2ccccc2n(-c2ccc(-c3ccc(-n4c5ccccc5c(=O)c5ccccc54)cc3)cc2)c2ccccc12
photoluminescence quantum yield (in ClCCl): 0.31

Compound: CCCCCCCCCCOc1ccc(C#Cc2cc3c(C#Cc4ccc(OCCCCCCCCCC)cc4)c(C#Cc4ccc(OCCCCCCCCCC)cc4)c4cc(C#Cc5ccc(OCCCCCCCCCC)cc5)cc5c(C#Cc6ccc(OCCCCCCCCCC)cc6)c(C#Cc6ccc(OCCCCCCCCCC)cc6)c(c2)c3c45)cc1
photoluminescence quantum yield (in ClCCl): 0.44

Compound: Cc1ccc(C2=C3C=CC(Cl)=[N+]3[B-](F)(F)n3c(Cl)ccc32)cc1
photoluminescence quantum yield (in C1CCCCC1): 0.33 | photoluminescence quantum yield (in C1CCOC1): 0.3 | photoluminescence quantum yield (in CC#N): 0.29 | photoluminescence quantum yield (in CCOC(C)=O): 0.32 | photoluminescence quantum yield (in CO): 0.27 | photoluminescence quantum yield (in Cc1ccccc1): 0.59 | photoluminescence quantum yield (in ClC(Cl)Cl): 0.63

Compound: C[Si]1(C)O[Si](C)(C)c2cc3c(-c4ccc(F)cc4)c4ccccc4nc3cc21
photoluminescence quantum yield (in ClCCl): 0.39

Compound: CN(C)c1ccc(/C=C/c2ccnc(/C=C/c3ccc(N(C)C)cc3)n2)cc1
photoluminescence quantum yield (in ClCCl): 0.04

More lines, now with the values ahead:

photoluminescence quantum yield (in CC#N): 0.042
Compound: Cc1ccc(-c2ccc(/C=C/c3cccs3)cn2)nc1

photoluminescence quantum yield (in C1CCOC1): 0.587
Compound: CC(C)(C)c1ccc(-c2c(-c3ccc(N(c4ccccc4)c4ccccc4)cc3)cc(-c3ccc(N(c4ccccc4)c4ccccc4)cc3)c(-c3ccc(C(C)(C)C)cc3)c2-c2ccc(C(C)(C)C)cc2)cc1

photoluminescence quantum yield (in ClCCl): 0.81
Compound: O=P1(c2ccccc2)C(c2ccc(N(c3ccccc3)c3ccccc3)cc2)=Cc2ccccc21 (centres undefined)

photoluminescence quantum yield (in CC#N): 0.0006
Compound: C(=C\c1cc[n+](Cc2ccccc2)cc1)/c1cc[n+](Cc2ccccc2)cc1

photoluminescence quantum yield (in C1CCCCC1): 0.018 | photoluminescence quantum yield (in C1COCCO1): 0.017 | photoluminescence quantum yield (in CC#N): 0.01 | photoluminescence quantum yield (in CN(C)C=O): 0.023 | photoluminescence quantum yield (in CO): 0.012 | photoluminescence quantum yield (in O): 0.011 | photoluminescence quantum yield (in OCC(O)CO): 0.35 | photoluminescence quantum yield (in OCCO): 0.104
Compound: COc1cc(/C=C2/SC(=O)NC2=O)ccc1O

photoluminescence quantum yield (in CN(C)C=O): 0.0205 | photoluminescence quantum yield (in ClC(Cl)Cl): 0.0225
Compound: CCCCCCOc1ccc(N(c2ccc(OCCCCCC)cc2)c2ccc(-c3sc(-c4ccc(N(c5ccc(OCCCCCC)cc5)c5ccc(OCCCCCC)cc5)cc4)c4nc(CC)c(CC)nc34)cc2)cc1

photoluminescence quantum yield (in ClCCl): 0.06
Compound: CC(C)(C)NC(=O)c1cc2ccccc2c2ccc3c4ccccc4c4ccccc4c3c12

photoluminescence quantum yield (in CC#N): 0.014
Compound: Cc1ccc(-[c+]2c3ccccc3oc3ccccc32)cc1

photoluminescence quantum yield (in CS(C)=O): 0.58
Compound: Cc1ccc(-c2cc(/C=C/c3ccc(N(c4ccccc4)c4ccccc4)cc3)c(C#N)c(N3CCCCC3)c2)cc1

photoluminescence quantum yield (in C1CCCCC1): 0.51 | photoluminescence quantum yield (in CC#N): 0.54
Compound: CC(C)c1ccc(/C=C/c2nc3ccc(N(C)C)cc3s2)cc1

photoluminescence quantum yield (in ClCCl): 0.223
Compound: Cc1cc2[nH]c3ccccc3c2c2[nH]c3ccccc3c12

photoluminescence quantum yield (in CC#N): 0.98
Compound: COc1ccc(-n2nc(C#N)c(N3CCCCCC3)n2)cc1

photoluminescence quantum yield (in OCC(O)CO): 0.026
Compound: C[n+]1ccc(/C=C/c2ccc(N(c3ccccc3)c3ccc(/C=C/c4cc[n+](C)cn4)cc3)cc2)nc1

photoluminescence quantum yield (in CC#N): 0.14
Compound: c1ccc2c(c1)ncc1ccc3cnc4ccccc4c3c12

photoluminescence quantum yield (in ClCCl): 0.46
Compound: COc1ccc(-c2cc(-c3ccccc3)c3n2[B-](F)(F)[N+]2=C4C=NC=CN4[B-](F)(F)[N+]2=C3)cc1

photoluminescence quantum yield (in ClC(Cl)Cl): 0.9
Compound: CCOC(CN1C(=O)C2=C(c3ccsc3)N(CC(OCC)OCC)C(=O)C2=C1c1ccsc1)OCC

photoluminescence quantum yield (in ClCCl): 0.05
Compound: [O-][n+]1c(/C=C/c2ccc3ccccc3c2)nc(N2CCOCC2)c2c1CCCC2

photoluminescence quantum yield (in ClC(Cl)Cl): 0.042
Compound: CCCCCCc1ccc(-n2c3c4cccc(OC)c4nc(-c4ccc(OC)cc4)c3c3c2c2c(-c4ccc(OC)cc4)nc4c(OC)cccc4c2n3-c2ccc(CCCCCC)cc2)cc1

photoluminescence quantum yield (in ClC(Cl)Cl): 0.28
Compound: COc1ccc2c(c1)CCC1=C(c3ccccc3)C3=Nc4c(-c5ccccc5)c5c(n4[B-](F)(F)[N+]3=C12)-c1ccc(OC)cc1CC5

photoluminescence quantum yield (in ClCCl): 0.79
Compound: O=C1c2cccc3cc(C#CC#Cc4cc5c6c(cccc6c4)C(=O)N(c4ccccc4)C5=O)cc(c23)C(=O)N1c1ccccc1

photoluminescence quantum yield (in ClCCl): 0.003
Compound: CN(C)c1ccc(C2=CC3=C(c4ccc([N+](=O)[O-])cc4)[C@H]4c5ccccc5[C@]3(S2)c2ccccc24)cc1

photoluminescence quantum yield (in ClCCl): 0.17
Compound: CN(C)c1ccc(/C=C/c2cnccn2)cc1

photoluminescence quantum yield (in CO): 0.25
Compound: Oc1ccccc1-c1nc(-c2ccccc2)c(-c2ccccc2)[nH]1

photoluminescence quantum yield (in CCO): 0.0198 | photoluminescence quantum yield (in ClCCl): 0.016
Compound: N#CC(C#N)=Cc1ccc(-c2ccc(O)c(-c3nc4ccccc4s3)c2)s1
